Our source for the EC50 and IC50 values is patent US10316017B2, “COT modulators and methods of use thereof” (Gilead Sciences, Inc., priority 2015, dated 2019).

For experiment [1], the system named is TNFα production in LPS-stimulated human monocytes. The experiment can be described thus: Cot Monocyte TNFα Cell Based Assay. The note with it: Homo sapiens, Monocyte, read-out: EC50 TNF. The procedure, abridged:
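Human monocytes (5,000 cells/well) pretreated with compound for 1 hour at 37° C (0.5% DMSO), then stimulated with 50 pg/ml LPS for 4 hours. Total TNFα measured by TR-FRET after overnight antibody incubation at room temp, expressed as percent of control between unstimulated and stimulated cells.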

The target of experiment [2] is T1, human Cot catalytic domain (30-397 amino acids) (Homo sapiens, UniProt P41279).
T1 construct: Purified recombinant human Cot catalytic domain (30-397 amino acids) was purchased from Cama Biosciences; purchased Cama Biosciences (so in the source)
T1 sequence (P41279 30-397): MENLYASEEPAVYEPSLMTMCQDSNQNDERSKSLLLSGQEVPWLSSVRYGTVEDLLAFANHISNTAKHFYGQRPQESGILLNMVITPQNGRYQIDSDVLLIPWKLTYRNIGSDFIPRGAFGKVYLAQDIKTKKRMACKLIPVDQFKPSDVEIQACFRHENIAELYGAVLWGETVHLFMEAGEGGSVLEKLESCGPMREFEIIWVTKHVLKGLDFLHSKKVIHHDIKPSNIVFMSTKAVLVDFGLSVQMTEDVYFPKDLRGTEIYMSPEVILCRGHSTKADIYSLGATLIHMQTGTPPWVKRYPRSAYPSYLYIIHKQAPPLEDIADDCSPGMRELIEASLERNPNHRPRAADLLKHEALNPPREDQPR
The experiment is described as follows: High Throughput Cot Biochemical Assay (KinEASE TR-FRET). The settings on record: read-out: IC50 HTRF. The procedure, abridged: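 Recombinant human Cot catalytic domain (aa 30-397), 5 nM, with 1 μM STK3 peptide and 400 μM ATP in MOPS pH 7.0 buffer with MgOAc, DTT, BSA, NP-40, glycerol, 0.1% DMSO. Phosphorylated XL665-peptide detected by Eu-[…] antibody TR-FRET.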

Where [3] appears, read: LPS-stimulated human monocytes, TNFα TR-FRET.
Where [4] appears, read: Cot KinEASE TR-FRET, 400 μM ATP.
The mark [5] stands for this setting: TNFα in LPS-stimulated human monocytes.
The mark [6] stands for this setting: Cot KinEASE TR-FRET (HTRF) biochemical assay, 400 μM ATP.
Where [7] appears, read: Cot biochemical HTRF (KinEASE TR-FRET) assay.

The structures appear in SMILES notation. Where two headings read alike, the source gives them in different places.

Regarding `Cc1c(C#N)cccc1[C@H](Nc1cc(C#N)c2ncc(C#N)c(NCC(C)(C)C(F)(F)F)c2c1)c1cn(C23CC(C2)C3)nn1` [Example 1151, (S)-6-(((1-(bicyclo[1.1.1]pentan-1-yl)-1H-1,2,3-triazol-4-yl)(3-cyano-2-methylphenyl)methyl)amino)-4-((3,3,3-trifluoro-2,2-dimethylpropyl)amino) quinoline-3,8-dicarbonitrile], the EC50 in experiment [1] (setting [3]) was found to be 36 nM. Moreover, in experiment [2] (setting [4]), the half-maximal inhibitory concentration (IC50) is 2 nM.
As to `CC(C)n1cc([C@@H](Nc2cc(Cl)c3ncc(C#N)c(N[C@@H](CC#N)c4ccccc4)c3c2)c2ccc(F)cc2)nn1` [Example 304, 8-chloro-4-(((S)-2-cyano-1-phenylethyl)amino)-6-(((S)-(4-fluorophenyl)(1-isopropyl-1H-1,2,3-triazol-4-yl)methyl)amino)quinoline-3-carbonitrile], in experiment [1] (setting [5]), the 50% effective concentration (EC50) was over 10000 nM. Also, the half-maximal inhibitory concentration (IC50) in experiment [2] (setting [6]) was found to be 864 nM.
For the compound `Cn1nccc1CNc1c(C#N)cnc2c(Cl)cc(N[C@@H](c3ccccc3)c3cn(C4CCN(C(C)(C)C)CC4)nn3)cc12` [Example 477, (S)-6-(((1-(1-(tert-butyl)piperidin-4-yl)-1H-1,2,3-triazol-4-yl)(phenyl)methyl)amino)-8-chloro-4-(((1-methyl-1H-pyrazol-5-yl)methyl)amino)quinoline-3-carbonitrile], the EC50 in experiment [1] (setting [5]) worked out at 6650 nM. The concentration for half-maximal inhibition (IC50) in experiment [2] (setting [7]) stood at 243 nM.
Take `CC[C@@H](Nc1c(C#N)cnc2c(C#N)cc(N[C@@H](c3cccc(C(=O)N4CC(F)(F)C4)c3)c3cn(C4CC4)nn3)cc12)c1ccccc1` [Example 943, 6-(((S)-(1-cyclopropyl-1H-1,2,3-triazol-4-yl)(3-(3,3-difluoroazetidine-1-carbonyl)phenyl)methyl)amino)-4-(((R)-1-phenylpropyl)amino)quinoline-3,8-dicarbonitrile]: the EC50 in experiment [1] (setting [3]) came out at 93 nM. The IC50 in experiment [2] (setting [4]) was found to be 4 nM.
On to `Cc1c([C@H](Nc2cc(C#N)c3ncc(C#N)c(NCC(C)(C)C)c3c2)c2cn(C3(C(F)F)CC3)nn2)cccc1-n1cnnn1` [Example 1082, (S)-6-(((1-(1-(difluoromethyl)cyclopropyl)-1H-1,2,3-triazol-4-yl)(2-methyl-3-(1H-tetrazol-1-yl)phenyl)methyl)amino)-4-(neopentylamino)quinoline-3,8-dicarbonitrile], for which the concentration giving a half-maximal response (EC50) in experiment [1] (setting [3]) was found to be 262 nM. The half-inhibitory concentration (IC50) in experiment [2] (setting [4]) was found to be 2 nM.
For the compound `[2H][C@](Nc1cc(Cl)c2ncc(C#N)c(Nc3cnc(F)c(F)c3)c2c1)(c1ccc(F)cc1)c1cn(C(C)(C)C)nn1` [Example 381, (S)-6-(((1-(tert-butyl)-1H-1,2,3-triazol-4-yl)(4-fluorophenyl)methyl-d)amino)-8-chloro-4-((5,6-difluoropyridin-3-yl)amino)quinoline-3-carbonitrile], in experiment [1] (setting [5]), the concentration giving a half-maximal response (EC50) was 644 nM. Further, the IC50 in experiment [2] (setting [6]) worked out at 44 nM.
On to `[2H][C@](Nc1cc(Cl)c2ncc(C#N)c(NCC(C)(C)C)c2c1)(c1ccc(Cl)cc1)c1cn(C2CCN(C3CC3)CC2)nn1` [Example 982, (S)-8-chloro-6-(((4-chlorophenyl)(1-(1-cyclopropylpiperidin-4-yl)-1H-1,2,3-triazol-4-yl)methyl-d)amino)-4-(neopentylarnino) quinoline-3-carbonitrile], for which the EC50 in experiment [1] (setting [3]) is 540 nM. The 50% inhibitory concentration (IC50) in experiment [2] (setting [4]) came to 23 nM.
For `Cc1c(C#N)cccc1[C@H](Nc1cc(Cl)c2ncc(C#N)c(NCC(C)(C)C)c2c1)c1cn(C23CC(C2)C3)nn1` [Example 1108, (S)-6-(((1-(bicyclo[1.1.1]pentan-1-yl)-1H-1,2,3-triazol-4-yl)(3-cyano-2-methylphenyl)methyl)amino)-8-chloro-4-(neopentylamino) quinoline-3-carbonitrile] the same measures were 31 nM and 4 nM.
Regarding `[2H][C@](Nc1cc(Cl)c2ncc(C#N)c(Nc3cnc(F)c(Cl)c3)c2c1)(c1cccc(C#N)c1)c1cn(C2CC2)nn1` [Example 303, (S)-8-chloro-4-((5-chloro-6-fluoropyridin-3-yl)amino)-6-(((3-cyanophenyl)(1-cyclopropyl-1H-1,2,3-triazol-4-yl)methyl-d)amino)quinoline-3-carbonitrile], the concentration giving a half-maximal response (EC50) in experiment [1] (setting [5]) came to 174 nM. Besides, the concentration for half-maximal inhibition (IC50) in experiment [2] (setting [6]) amounted to 4 nM.
With `CC(C)(C)CNc1c(C#N)cnc2c(Br)cc(N[C@@H](c3cccc(C(=O)O)c3)c3cn(C4CC4)nn3)cc12` [Compound 60], the half-maximal effective concentration (EC50) in experiment [1] (setting [5]) was over 1000 nM. Also, the half-maximal inhibitory concentration (IC50) in experiment [2] (setting [6]) was 17 nM.
For the compound `Cc1nnc(C(Nc2cc(Cl)c3ncc(C#N)c(Nc4ccc(F)c(Cl)c4)c3c2)c2ccc(F)cc2)o1` (stereo not drawn) [Example 734, 8-chloro-4-((3-chloro-4-fluorophenyl)amino)-6-(((4-fluorophenyl)(5-methyl-1,3,4-oxadiazol-2-yl)methyl)amino)quinoline-3-carbonitrile], the concentration for a half-maximal effect (EC50) in experiment [1] (setting [5]) stood at 3900 nM. In addition, the IC50 in experiment [2] (setting [7]) was determined as 151 nM.
Turning to `CC(C)(C)N1CCC(n2cc([C@@H](Nc3cc(Cl)c4ncc(C#N)c(Nc5ccc(F)c(Cl)c5)c4c3)c3cccc(C(=O)N4CCCCC4)c3)nn2)CC1` [Example 676, (S)-6-(((1-(1-(tert-butyl)piperidin-4-yl)-1H-1,2,3-triazol-4-yl)(3-(piperidine-1-carbonyl)phenyl)methyl)amino)-8-chloro-4-((3-chloro-4-fluorophenyl)amino)quinoline-3-carbonitrile], the EC50 in experiment [1] (setting [5]) came to 434 nM. Further, the IC50 in experiment [2] (setting [7]) came to 6 nM.
In the case of `[2H][C@](Nc1cc(-c2ccncc2)c2ncc(C#N)c(NCC(C)(C)C)c2c1)(c1ccc(F)cc1)c1cn(C2CC2)nn1` [Example 140, (S)-6-(((1-cyclopropyl-1H-1,2,3-triazol-4-yl)(4-fluorophenyl)methyl-d)amino)-4-(neopentylamino)-8-(pyridin-4-yl)quinoline-3-carbonitrile], in experiment [1] (setting [5]), the EC50 was over 10000 nM. Besides, the half-inhibitory concentration (IC50) in experiment [2] (setting [6]) amounted to 1500 nM.
For `[2H][C@](Nc1cc(Cl)c2ncc(C#N)c(N[C@@H](CCC#N)c3ccccc3)c2c1)(c1ccc(F)cc1)c1cn(C2CC2)nn1` [Example 248, 8-chloro-4-(((S)-3-cyano-1-phenylpropyl)amino)-6-(((S)-(1-cyclopropyl-1H-1,2,3-triazol-4-yl)(4-fluorophenyl)methyl-d)amino)quinoline-3-carbonitrile] the same measures were over 10000 nM and 3200 nM.
In the case of `CC(C)CNc1c(C#N)cnc2c(Cl)cc(N[C@@H](c3ccc(F)cc3)c3cn(C4CC4)nn3)cc12` [Example 345, (S)-8-chloro-6-(((1-cyclopropyl-1H-1,2,3-triazol-4-yl)(4-fluorophenyl)methyl)amino)-4-(isobutylamino)quinoline-3-carbonitrile], in experiment [1] (setting [5]), the half-maximal effective concentration (EC50) came to 976 nM. Also, in experiment [2] (setting [6]), the IC50 was determined as 57 nM.
For the compound `CC(C)(C)N1CCC(n2cc([C@@H](Nc3cc(Cl)c4ncc(C#N)c(Nc5ccccc5Cl)c4c3)c3ccc(Cl)cc3)nn2)CC1` [Example 758, (S)-6-(((1-(1-(tert-butyl)piperidin-4-yl)-1H-1,2,3-triazol-4-yl)(4-chlorophenyl)methyl)amino)-8-chloro-4-((2-chlorophenyl)amino)quinoline-3-carbonitrile], the concentration for a half-maximal effect (EC50) in experiment [1] (setting [5]) turned out to be 1310 nM. Further, the half-inhibitory concentration (IC50) in experiment [2] (setting [7]) was 97 nM.
On to `[2H][C@@](Nc1cc(Cl)c2ncc(C#N)c(NCC(C)(C)C)c2c1)(c1cn(C2CC2)nn1)c1ccccc1C(F)F` [Example 238, (S)-8-chloro-6-(((1-cyclopropyl-1H-1,2,3-triazol-4-yl)(2-(difluoromethyl)phenyl)methyl-d)amino)-4-(neopentylamino)quinoline-3-carbonitrile], for which, in experiment [1] (setting [5]), the EC50 amounted to 162 nM. For the same compound, in experiment [2] (setting [6]), the IC50 came out at 12 nM.
Regarding `Cc1c([C@H](Nc2cc(Cl)c3ncc(C#N)c(NCC(C)(C)C)c3c2)c2cn(C3(C(F)(F)F)CC3)nn2)cccc1-n1ccnc1` [Example 1041, (S)-6-(((3-(1H-imidazol-1-yl)-2-methylphenyl)(1-(1-(trifluoromethyl)cyclopropyl)-1H-1,2,3-triazol-4-yl)methyl)amino)-8-chloro-4-(neopentylamino)quinoline-3-carbonitrile], the concentration giving a half-maximal response (EC50) in experiment [1] (setting [3]) was determined as 86 nM. In experiment [2] (setting [4]), the IC50 came to 4 nM.
As for `N#Cc1cnc2c(Cl)cc(N[C@@H](c3ccc(F)cc3)c3c[nH]nn3)cc2c1NCC1COC1` [Example 421, (S)-8-chloro-6-(((4-fluorophenyl)(1H-1,2,3-triazol-4-yl)methyl)amino)-4-((oxetan-3-ylmethyl)amino)quinoline-3-carbonitrile], the EC50 in experiment [1] (setting [5]) is over 10000 nM. Moreover, the IC50 in experiment [2] (setting [7]) came out at 1490 nM.
The matching figures for `N#Cc1cnc2c(Cl)cc(N[C@@H](c3ccccc3)c3cn(C4C5CNCC54)nn3)cc2c1Nc1ccc(F)c(Cl)c1` (stereo partly drawn) [Example 577, 6-(((1S)-(1-(3-azabicyclo[3.1.0]hexan-6-yl)-1H-1,2,3-triazo1-4-yl)(phenyl)methyl)amino)-8-chloro-4-((3-chloro-4-fluorophenyl)amino)quinoline-3-carbonitrile]: 38 nM and 3 nM.
On to `[2H][C@](Nc1cc(Cl)c2ncc(C#N)c(N[C@H](CCC#N)c3ccccc3)c2c1)(c1ccc(Cl)cc1)c1cn(C2CC2)nn1` [Example 74, 8-chloro-6-(((S)-(4-chlorophenyl)(1-cyclopropyl-1H-1,2,3-triazol-4-yl)methyl-d)amino)-4-(((R)-3-cyano-1-phenylpropyl)amino) quinoline-3-carbonitrile], for which the concentration for a half-maximal effect (EC50) in experiment [1] (setting [5]) was 30 nM. For the same compound, the half-maximal inhibitory concentration (IC50) in experiment [2] (setting [6]) turned out to be 3 nM.
